According to patent publication US12060351B2, “Thiadiazole IRAK4 inhibitors” (Gilead Sciences, Inc., priority 2018, dated 2024):
Like-named read-outs stand apart in the source and are kept apart here.

Tests used:
TNFα = assay: IRAK4 Monocyte TNFα Cell Based Assay (LPS-stimulated, TR-FRET TNFα detection); set-up: species or system human; conditions: human monocytes, LPS-stimulated, Table 2 second part (compounds 33-343), read-out: EC50 MONO TNF HTRF
Experimental: IRAK4 Monocyte TNFα Cell Based Assay Procedure:
The cell suspension was then plated at a density of 5,000 cells/well onto black 384 well Greiner clear bottom plates. Plates were pre-spotted with test compounds and serially diluted in DMSO where 40 nL/well were delivered using the Echo 550 acoustic liquid dispenser (Labcyte®) for a final DMSO concentration of 0.1%. Plated cells were treated with compound for 1 hour at 37° C. Cells were then stimulated with 50 pg/ml of LPS (Sigma) excluding outside columns of plate used for unstimulated cell control wells. Cells were incubated for an additional 4 hours at 37° C. Cells were then spun out of the media and 5 μl of sample were taken and analyzed for total TNFα content using the TR-FRET Human TNFα detection system (CisBio). This system utilizes two labeled antibodies (cryptate and XL665) that bind to two different epitopes of the TNFα molecule and produce FRET signal proportional to the concentration of TNFα in the sample. Detection antibodies are mixed 50:50 and 5 μL were dispensed into each well. Plates were covered with clear seals and incubated at room temp overnight. […] Percent of control was calculated as follows: % Control=100×(RatioSample−Ratio0% Stimulation)/(Ratio100% Stimulation−Ratio0% Stimulation) where unstimulated cells (0% stimulation) were the negative control and stimulated cells (100% stimulation) were used as the positive control.

IRAK4 enzyme = molecular target: T1, IRAK4 enzyme (Homo sapiens, UniProt Q9NWZ3); assay: IRAK4 Biochemical Assay (TR-FRET, STK1 KinEASE); conditions: 500 μM ATP
T1 construct: purchased Carna Biosciences, Chuo-ku, Kobe, Japan
T1 sequence (Q9NWZ3 1-460): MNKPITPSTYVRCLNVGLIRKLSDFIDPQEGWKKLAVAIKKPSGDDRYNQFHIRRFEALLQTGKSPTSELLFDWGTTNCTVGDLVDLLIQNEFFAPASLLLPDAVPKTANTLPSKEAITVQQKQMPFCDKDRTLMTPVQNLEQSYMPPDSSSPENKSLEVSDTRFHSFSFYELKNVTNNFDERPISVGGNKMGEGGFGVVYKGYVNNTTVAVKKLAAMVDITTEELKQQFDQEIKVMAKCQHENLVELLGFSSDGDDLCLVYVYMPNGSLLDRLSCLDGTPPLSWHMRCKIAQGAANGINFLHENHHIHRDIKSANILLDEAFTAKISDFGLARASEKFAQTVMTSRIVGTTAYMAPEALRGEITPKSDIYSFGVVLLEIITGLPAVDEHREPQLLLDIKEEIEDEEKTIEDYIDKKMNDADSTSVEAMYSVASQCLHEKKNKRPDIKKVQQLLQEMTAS
Experimental: IRAK4 enzyme (Carna Biosciences, Chuo-ku, Kobe, Japan) activity was measured by detecting phosphorylated peptide substrate formation using an antibody against the phosphorylated peptide substrate. This is a time-resolved fluorescence resonance energy transfer (TR-FRET) immunoassay, based on the STK1 KinEASE Assay (Cisbio, Bedford, Massachusetts). The assay was designed as a simple two-step, endpoint assay (a 5 μl enzyme reaction followed by 5 μl stop and detect Solution) performed in ProxiPlate-384 Plus plates (Perkin Elmer, Waltham, Massachusetts). […] Compounds diluted in DMSO were spotted into 384 well plates using a Labcyte® Echo 550 Liquid Handling System prior to addition of IRAK4 enzyme and peptide substrate. Reaction solutions were delivered using a Multi-Flo (Bio-Tek Instruments). The enzyme and peptide solution was incubated with compound for 15 minutes at room temp before the reaction was initiated by the addition of ATP. The standard 5 μl reaction mixture contained 500 μM ATP, 2 μM peptide (STK1 Peptide), 0.75 nM of IRAK4 in reaction buffer (50 mM HEPES, pH 7.0, 0.02% NaN3, 0.01% BSA, 0.1 mM Orthovanadate, 5 mM MgCl2, 0.025% NP-40, 1 mM DTT). After 120 min of incubation at room temperature, 5 μl of Stop and Detect Solution (1:100 Cryptate labeled anti-phosphorylated peptide antibody solution and 125 nM Tracer in a 50 mM HEPES pH 7.0 detection buffer containing sufficient EDTA) was added. The plate was then further incubated for 60 minutes at room temperature and read on Envision 2103 Multilabeled reader (PerkinElmer) with excitation/emission/FRET emission at 340 nm/615 nm/665 nm, respectively. Fluorescence intensities at 615 nm and 665 nm emission wavelengths were expressed as a ratio (665 nm/615 nm).

[1] = Table 2 second part (compounds 33-343), read-out: IC50 IRAK4-HTBS

With “7-(5-(5-(4-aminobicyclo[2.2.2]octan-1-yl)-1,3,4-thiadiazol-2-yl)-4-((tetrahydro-2H-pyran-4-yl)amino)pyridin-2-yl)pyrrolo[1,2-b]pyridazine-3-carbonitrile [Example 336]” the EC50 (TNFα) was 11 nM and the IC50 (IRAK4 enzyme; [1]) was 0.7 nM.

Work on `CC(C)Nc1cc(-c2ccc3cc(C#N)cnn23)ncc1-c1nnc([C@@H]2CC[C@H]2C(C)(C)O)s1` (racemic) [Example 88, 7-(5-(5-((1,2-trans)-2-(2-hydroxypropan-2-yl)cyclobutyl)-1,3,4-thiadiazol-2-yl)-4-(isopropylamino)pyridin-2-yl)pyrrolo[1,2-b]pyridazine-3-carbonitrile] yielded an IC50 (IRAK4 enzyme; IC50 IRAK4-HTBS, Table 2 second part (compounds 33-343)) of 0.83 nM.

`CC(=O)N[C@@H]1[C@@H]2CN(c3nnc(-c4cnc(-c5ccc6cc(C#N)cnn56)cc4NC(C)C)s3)C[C@@H]21` [Compound 239, N-((1R,5S,6r)-3-(5-(6-(3-cyanopyrrolo[1,2-b]pyridazin-7-yl)-4-(isopropylamino)pyridin-3-yl)-1,3,4-thiadiazol-2-yl)-3-azabicyclo[3.1.0]hexan-6-yl)acetamide] gave an EC50 (TNFα; Homo sapiens, Monocyte) of 4.9 nM and an IC50 (IRAK4 enzyme; [1]) of 0.11 nM.

Compound `CC(=O)N[C@H]1[C@@H]2CN(c3nnc(-c4cnc(-c5ccc6cc(C#N)cnn56)cc4NC(C)C)s3)C[C@@H]21` [Compound 240, N-((1R,5S,6s)-3-(5-(6-(3-cyanopyrrolo[1,2-b]pyridazin-7-yl)-4-(isopropylamino)pyridin-3-yl)-1,3,4-thiadiazol-2-yl)-3-azabicyclo[3.1.0]hexan-6-yl)acetamide] has an EC50 (TNFα; Homo sapiens, Monocyte) of 8.9 nM and an IC50 (IRAK4 enzyme; [1]) of 0.15 nM.

For `CC(=O)N[C@H]1CC[C@H](c2nnc(-c3cnc(-c4ccc5cc(C#N)cnn45)cc3NC34CCC(O)(CC3)CC4)s2)CC1` [Compound 241, N-((1r,4r)-4-(5-(6-(3-cyanopyrrolo[1,2-b]pyridazin-7-yl)-4-((4-hydroxybicyclo[2.2.2]octan-1-yl)amino)pyridin-3-yl)-1,3,4-thiadiazol-2-yl)cyclohexyl)acctamide], the EC50 (TNFα; Homo sapiens, Monocyte) was 4.8 nM and the IC50 (IRAK4 enzyme; [1]) was 1.39 nM.

With `CC(=O)N[C@H]1CC[C@H](c2nnc(-c3cnc(-c4ccc5cc(C#N)cnn45)cc3N[C@H]3C[C@@](C)(O)C3)s2)CC1` [Compound 243, N-((1R,4r)-4-(5-(6-(3-cyanopyrrolo[1,2-b]pyridazin-7-yl)-4-(((1s,3S)-3-hydroxy-3-methylcyclobutyl)amino)pyridin-3-yl)-1,3,4-thiadiazol-2-yl)cyclohexyl)acetamide] the EC50 (TNFα; Homo sapiens, Monocyte) was 6.4 nM and the IC50 (IRAK4 enzyme; [1]) was 0.55 nM.

Compound `CC(=O)N[C@H]1CC[C@H](c2nnc(-c3cnc(-c4ccc5cc(C#N)cnn45)cc3N[C@H]3CCC[C@@H](O)C3)s2)CC1` [Compound 245, N-((1S,4r)-4-(5-(6-(3-cyanopyrrolo[1,2-b]pyridazin-7-yl)-4-(((1S,3R)-3-hydroxycyclohexyl)amino)pyridin-3-yl)-1,3,4-thiadiazol-2-yl)cyclohexyl)acetamide] has an EC50 (TNFα; Homo sapiens, Monocyte) of 3.2 nM and an IC50 (IRAK4 enzyme; [1]) of 0.55 nM.

`CC(=O)N[C@H]1CC[C@H](c2nnc(-c3cnc(-c4ccc5cc(C#N)cnn45)cc3NC3CCOCC3)s2)CC1` [Compound 255, N-((1r,4r)-4-(5-(6-(3-cyanopyrrolo[1,2-b]pyridazin-7-yl)-4-((tetrahydro-2H-pyran-4-yl)amino)pyridin-3-yl)-1,3,4-thiadiazol-2-yl)cyclohexyl)acetamide] gave an EC50 (TNFα; Homo sapiens, Monocyte) of 5.1 nM and an IC50 (IRAK4 enzyme; [1]) of 0.63 nM.

`CC(=O)N[C@H]1CC[C@H](c2nnc(-c3cnc(-c4ccc5cc(C#N)cnn45)cc3NC(C)C)s2)CC1` [Example 24, N-((1r,4r)-4-(5-(6-(3-cyanopyrrolo[1,2-b]pyridazin-7-yl)-4-(isopropylamino)pyridin-3-yl)-1,3,4-thiadiazol-2-yl)cyclohexyl)acetamide] was tested, and the IC50 (IRAK4 enzyme; Table 2 first part (compounds 1-32), read-out: IC50 HTRF) was under 1 nM.

`CC(=O)N[C@@H]1CCN(c2nnc(-c3cnc(-c4ccc5cc(C#N)cnn45)cc3NC(C)C)s2)C[C@@H]1O` [Example 63, N-((3S,4R)-1-(5-(6-(3-cyanopyrrolo[1,2-b]pyridazin-7-yl)-4-(isopropylamino)pyridin-3-yl)-1,3,4-thiadiazol-2-yl)-3-hydroxypiperidin-4-yl)acetamide] was tested, and the IC50 (IRAK4 enzyme; [1]) was 0.29 nM.

Work on `CC(C)Nc1cc(-c2ccc3cc(C#N)cnn23)ncc1-c1nnc(N2C[C@H]3CC[C@@H](C2)[C@@H]3NC(=O)N2CCN(C3COC3)CC2)s1` [Example 116, N-((1R,5S,8s)-3-(5-(6-(3-cyanopyrrolo[1,2-b]pyridazin-7-yl)-4-(isopropylamino)pyridin-3-yl)-1,3,4-thiadiazol-2-yl)-3-azabicyclo[3.2.1]octan-8-yl)-4-(oxetan-3-yl)piperazine-1-carboxamide] yielded an EC50 (TNFα; Homo sapiens, Monocyte) of 4.1 nM.

Work on `CC(C)Nc1cc(-c2ccc3cc(C#N)cnn23)ncc1-c1nnc(C2CCNCC2)s1` [Example 129, 7-(4-(isopropylamino)-5-(5-(piperidin-4-yl)-1,3,4-thiadiazol-2-yl)pyridin-2-yl)pyrrolo[1,2-b]pyridazine-3-carbonitrile] yielded an EC50 (TNFα; Homo sapiens, Monocyte) of 21.7 nM.

Work on `CC(C)Nc1cc(-c2ccc3cc(C#N)cnn23)ncc1-c1nnc(N2C[C@H]3CC[C@@H](C2)[C@H]3O)s1` [Example 146, 7-(5-(5-((1R,5S,8r)-8-hydroxy-3-azabicyclo[3.2.1]octan-3-yl)-1,3,4-thiadiazol-2-yl)-4-(isopropylamino)pyridin-2-yl)pyrrolo[1,2-b]pyridazine-3-carbonitrile] yielded an IC50 (IRAK4 enzyme; [1]) of 0.48 nM.

With `CC(C)Nc1cc(-c2ccc3cc(C#N)cnn23)ncc1-c1nnc(N2C[C@H]3CC[C@@H](C2)[C@@H]3O)s1` [Example 154, 7-(5-(5-((1R,5S,8s)-8-hydroxy-3-azabicyclo[3.2.1]octan-3-yl)-1,3,4-thiadiazol-2-yl)-4-(isopropylamino)pyridin-2-yl)pyrrolo[1,2-b]pyridazine-3-carbonitrile] the IC50 (IRAK4 enzyme; [1]) was 1.57 nM.

With `CC(C)Nc1cc(-c2ccc3cc(C#N)cnn23)ncc1-c1nnc([C@H]2C[C@@H](NC(=O)C3CC3)C2)s1` [Example 281, N-((1s,3s)-3-(5-(6-(3-cyanopyrrolo[1,2-b]pyridazin-7-yl)-4-(isopropylamino)pyridin-3-yl)-1,3,4-thiadiazol-2-yl)cyclobutyl)cyclopropanecarboxamide] the EC50 (TNFα; Homo sapiens, Monocyte) was 8280 nM.

In the case of `CC(C)Nc1cc(-c2ccc3cc(C#N)cnn23)ncc1-c1nnc([C@H]2C[C@H](NC3COC3)C2)s1` [Example 283, 7-(4-(isopropylamino)-5-(5-((1r,3r)-3-(oxetan-3-ylamino)cyclobutyl)-1,3,4-thiadiazol-2-yl)pyridin-2-yl)pyrrolo[1,2-b]pyridazine-3-carbonitrile], the EC50 (TNFα; Homo sapiens, Monocyte) is reported as 19.9 nM.

Work on `CC(C)(O)C(=O)NC12CCC(c3nnc(-c4cnc(-c5ccc6cc(C#N)cnn56)cc4NC4CCOCC4)s3)(CC1)CC2` [Example 337, N-(4-(5-(6-(3-cyanopyrrolo[1,2-b]pyridazin-7-yl)-4-((tetrahydro-2H-pyran-4-yl)amino)pyridin-3-yl)-1,3,4-thiadiazol-2-yl)bicyclo[2.2.2]octan-1-yl)-2-hydroxy-2-methylpropanamide] yielded an EC50 (TNFα; Homo sapiens, Monocyte) of 3.3 nM.
